Key:
[1] = test system: 4 mm punch biopsy wounds of the upper inner arm; test: Topical oestrogen patch clinical trial of wound healing in elderly men and women; assay type: in vivo, human; conditions: patch applied to the wound for 24 hours post-wounding
Experimental: Approval for this study was given by the local Ethics Committee. Forty health-status defined volunteers split into four groups: (i) GROUP 3A comprised ten women with mean age 76.3 yr (Sd 5.6) who received oestrogen supplements (25 μg/24 hrs of oestradiol) (ii) GROUP 3B comprised ten women with mean age 72.5 yr (Sd 7.1) who received placebo instead of oestrogen. (iii) GROUP 3C comprised ten men with mean age 69.6 yr (Sd 3.6) who received oestrogen supplements (ii) GROUP 3D comprised ten men with mean age 71.8 yr (Sd 8.9) who received placebo instead of oestrogen. After informed consent subjects from each of Groups 3A, 3B, 3C and 3D underwent two 4 mm punch biopsies from the upper inner arm (a non sun-exposed site) following local infiltration with 1 ml 1% lignocaine. Each biopsy of normal skin was bisected and one-half embedded in Optimal Cutting Temperature compound (Miles Inc. Elkhart, Ind.), frozen over liquid nitrogen, and stored at −70° C., and one-half snap-frozen in liquid nitrogen and stored at −70° C. The area for biopsy was covered by a 2×3 cm patch (placebo Groups 3B and 3D or active oestradiol 3A and 3C) through which the biopsies were made. The patch was covered by a Multisorb dry gauze dressing (Smith & Nephew) and both were removed after 24 hrs. The active patches contained sufficient oestradiol such that the wound sites were exposed to 25 μg/24 hrs of oestradiol. Five subjects from Groups 3A, 3B, 3C and 3D underwent re-excision of the wounds at day 7 post-wounding, and the other five subjects from each group at day 84 post-wounding. The left upper inner arm was cleaned with isopropyl alcohol, elliptical excisions of the wounds were made following 1% lignocaine infiltration and two sutures were used to close the gap. Each wound was bisected and processed as described above (3.1.3). 7 μm paraffin-embedded sections were strained with H&E and Masson's Trichrome. The rate of re-epithelialisation (at day 7 post-wounding), and wound sizes as determined by planimetry, were determined with image analysis using an Olympus Vanox camera and PC image capture system. Collagen quantity within the wound was determined by two observers blinded to the identity of the specimen on the following scale +=minimal quantities; ++=less than normal skin; +++=similar to normal skin; ++++=greater than normal skin. The wound stiffness at day 80 was determined using the non-disruptive Dimensional Analysis System (Das). Previous studies have correlated wound breaking strength values (ultimate pressure at failure) to wound stiffness using this system. The system applies a multiaxial load (negative pressure) to the wound and measures the deformation due to the load of two reflective targets placed at the wound edges, using a high resolution camera and video processor. Pressure was applied to a maximum of 100 mmHg and then released, Stiffness was measured between 20 and 80 mmHg.

[2] = test system: full thickness incisional wounds; test: Incisional wound healing in OVX and sham rats, histology at day 7 post-wounding; assay type: in vivo, Female Sprague Dawley rats; set-up: key to NEW COLLAGEN / CELLS: + = little/few; ++++ = lots); key to EPITHELIALISATION: Y = epithelialised
Source text: Female Sprague Dawley rats were housed together in three groups (1A, 1B and 1C) of nine to allow for synchronised oestrus cycling. Group 1A were ovariectomised (OVX) 18 days prior to wounding to allow circulating sex hormone levels to be eliminated. Group 1B (control) were untreated and Group 1C had the same operative procedure as the OVX (Group 1A), but without the removal of the ovaries, to ensure that the OVX operative procedure had no effect on the wounding studies (sham).
17 β-oestradiol (Sigma) was prepared as sterile 0.1% and 1% solutions in phosphate buffered saline (PBS) containing 0.1% and 1% 2-hydroxypropyl-β-cyclodextrin respectively, 2-hydroxypropyl-β-cyclodextrin is used in preparations as a carrier molecule to increase the water solubility of β-oestradiol. PBS/cyclodextrin was used as a vehicle control.
Animals from Groups 1A, 1B and 1C were given 4×1 cm length full thickness incisional wounds at 4.5-5.5 cm and 7.5-8.5 cm below the base of the skull, 1 cm either side of the midline. A single 100 μl intradermal injection was then given at each of the four wound sites. Each of the wounds (a total of 36 wounds on 9 rats in each group) received either 100 μl of oestradiol (0.1% or 1%), 100 μl of vehicle control (0.1% or 1% cyclodextrin) or was left unmanipulated (no injection).
The wounds were allowed to heal for 7 days after which the wounded tissue was excised for histological analysis.
7 μm paraffin-embedded sections were stained with H&E and Masson's Trichrome. The rate of re-epithelialisation (at day 7 post-wounding), and wound sizes as determined by planimetry, were determined with image analysis using an Olympus Vanox camera and PC image capture system. Collagen quantity within the wound was determined by two observers blinded to the identity of the specimen.

wound repair = test: Supplementation of individuals with DHEA, wound healing in the aged; assay type: in vivo
[3] = 0.1% oestradiol with 0.1% cyclodextrin vehicle, single 100 μl intradermal injection, OVX rats
[4] = 0.1% oestradiol with 0.1% cyclodextrin vehicle, single 100 μl intradermal injection, SHAM rats
[5] = 1% oestradiol with 1% cyclodextrin vehicle, single 100 μl intradermal injection, OVX rats
[6] = 1% oestradiol with 1% cyclodextrin vehicle, single 100 μl intradermal injection, SHAM rats

| Compound | rate at which the wound heals [1] | CELLS [2, 3] | EPITHELIALISATION [2, 3] | NEW COLLAGEN [2, 3] | WOUND WIDTH [2, 3] | EPITHELIALISATION [2, 4] | WOUND WIDTH [2, 4] | EPITHELIALISATION [2, 5] | WOUND WIDTH [2, 5] | EPITHELIALISATION [2, 6] | WOUND WIDTH [2, 6] | rate of wound healing ([2]; 1% β-oestradiol, OVX group wounds, compared to control PBS treated and unmanipulated wounds) | rate of wound healing ([2]; single application of 0.1% β-oestradiol, OVX wounds, compared to control wounds) | rate of wound repair (wound repair) |
| --- | --- | --- | --- | --- | --- | --- | --- | --- | --- | --- | --- | --- | --- | --- |
| C[C@]12CC[C@@H]3c4ccc(O)cc4CC[C@H]3[C@@H]1CC[C@@H]2O [OESTRADIOL, 17 β-oestradiol] | sufficient to improve the rate at which the wound heals | + | Y | ++++ | narrow | Y | narrow | Y | narrow | Y | wide | increased rate of wound healing | accelerated wound healing |  |
| C[C@]12CC[C@H](O)CC1=CC[C@@H]1[C@@H]2CC[C@]2(C)C(=O)CC[C@@H]12 [DHEA, Dehydroepiandrosterone] |  |  |  |  |  |  |  |  |  |  |  |  |  | stimulating the rate of wound repair |

From patent US6696433B2, “Use of sex steroids function modulators to treat wounds and fibrotic disorders” (Renovo Limited, priority 1996, dated 2004)
